According to article PMC8746970, “Determination of the Peptide AWRK6 in Rat Plasma by Liquid Chromatography-Tandem Mass Spectrometry (LC-MS/MS) and Its Application to Pharmacokinetics” (Molecules, 2021):
No end group written: not given here.

Experiment: Stability of AWRK6 QC samples in rat plasma under storage conditions
Type: in vitro ADME
Settings: for measured concentration of QC sample after storage / relative error of QC sample after storage: rat plasma QC, LC-MS/MS, n = 3; for measured concentration of QC sample after storage: mean ± SD
Description: The AWRK6 and IS were dissolved in water at 1.0 mg/mL for stock solution. The AWRK6 calibration standards at 0.05, 0.1, 0.5, 1, 2, 5, and 10 μg/mL were prepared by mixing 50 μL of working solution and 100 μL of blank plasma individually. QC samples of AWRK6 at 0.1, 0.5, and 5 μg/mL were prepared by the same method. The thawed plasma samples (100 μL) were mixed with 50 μL water (or QC), 50 μL IS (1 μg/mL), and 20 μL FA-water (25:75, v/v). A combination of plasma precipitation and liquid–liquid extraction was applied for the extraction of AWRK6 in samples. After adding 200 μL methanol and 100 μL dichloromethane, the mixtures were vortexed for 30 s and centrifuged at 14,000 g for 10 min. The supernatant was filtered by 0.22 μm membrane for LC-MS/MS analysis.
The method was validated for specificity, linearity, LOD, LOQ, LLOQ, precision, accuracy, recovery, matrix effect, and stability according to U.S. FDA guidelines. Specificity was determined using blank plasma samples from 6 rats. Linearity was accessed using calibration standards in triplicate within 3 consecutive days. LOD and LOQ were estimated as concentrations of AWRK6 which generated S/N value of 3 or 10, and they were verified by continuous evaluating the S/N value of 3 LOD samples or 6 LOQ samples. LLOQ was determined using 6 calibration standard samples at 0.05 μg/mL. Precision and accuracy were accessed using QC samples and repeated 6 times within 3 consecutive days. Recovery was calculated by comparing the respective peak areas of the QC samples with the blank plasma samples spiked after extraction (repeated 6 times). Matrix effect was evaluated by comparing the respective peak areas of the QC samples with standard solutions (AWRK6 and IS in water, respectively) at the same concentrations (repeated 6 times). Stability was analyzed using QC samples under different storage conditions including room temperature for 6 h, 3 freeze–thaw cycles, 4 °C for 12 h, and−20 °C for 7 days.

[1] = nominal 0.100 μg/mL, room temperature for 6 h
[2] = nominal 0.100 μg/mL, storage at 4 °C for 12 h
[3] = nominal 0.100 μg/mL, storage at −20 °C for 7 days
[4] = nominal 0.100 μg/mL, three freeze–thaw cycles
[5] = nominal 0.500 μg/mL, room temperature for 6 h
[6] = nominal 0.500 μg/mL, storage at 4 °C for 12 h
[7] = nominal 0.500 μg/mL, storage at −20 °C for 7 days
[8] = nominal 0.500 μg/mL, three freeze–thaw cycles
[9] = nominal 5.000 μg/mL, storage at 4 °C for 12 h
[10] = nominal 5.000 μg/mL, storage at −20 °C for 7 days
[11] = nominal 5.000 μg/mL, three freeze–thaw cycles

relative error of QC samples (stability acceptable) (rat plasma QC 0.1, 0.5, 5 μg/mL, room temperature for 6 h, 3 freeze–thaw cycles, and 4 °C for 12 h): < 12%
relative error of QC samples (significant degradation) (rat plasma QC 0.1, 0.5, 5 μg/mL, storage at −20 °C for 7 days): −16.94 to −34.74%
measured concentration of QC sample after storage [1]: 0.089 ± 0.007 µg/mL
relative error of QC sample after storage [1]: −6.315%
measured concentration of QC sample after storage [2]: 0.084 ± 0.013 µg/mL
relative error of QC sample after storage [2]: −11.579%
measured concentration of QC sample after storage [3]: 0.062 ± 0.018 µg/mL
relative error of QC sample after storage [3]: −34.737%
measured concentration of QC sample after storage [4]: 0.091 ± 0.008 µg/mL
relative error of QC sample after storage [4]: −4.210%
measured concentration of QC sample after storage [5]: 0.462 ± 0.021 µg/mL
relative error of QC sample after storage [5]: −4.742%
measured concentration of QC sample after storage [6]: 0.442 ± 0.015 µg/mL
relative error of QC sample after storage [6]: −8.866%
measured concentration of QC sample after storage [7]: 0.387 ± 0.047 µg/mL
relative error of QC sample after storage [7]: −20.206%
measured concentration of QC sample after storage [8]: 0.477 ± 0.016 µg/mL
relative error of QC sample after storage [8]: −1.649%
measured concentration of QC sample after storage [9]: 4.881 ± 0.301 µg/mL
relative error of QC sample after storage [9]: −1.040%
measured concentration of QC sample after storage [10]: 4.153 ± 0.442 µg/mL
relative error of QC sample after storage [10]: −16.940%
measured concentration of QC sample after storage [11]: 4.912 ± 0.049 µg/mL
relative error of QC sample after storage [11]: −0.409%
Substance: SWVGKHGKKFGLKKHKKH-NH2 (C-terminus assumed) [AWRK6]
